# From ChEMBL document CHEMBL4330132, “5-Keto-3-cyano-2,4-diaminothiophenes as selective maternal embryonic leucine zipper kinase inhibitors” (Bioorg Med Chem Lett, 2019)
# Assays:
# [1] = target: Tyrosine-protein kinase ABL2 (Homo sapiens) (UniProt P42684); test: Binding affinity to wild-type human ABL2 (A248 to G542 residues) expressed in bacterial expression system assessed as residual binding level at 1 uM by Kinomescan method relative to control
# [2] = target: Atypical kinase COQ8B, mitochondrial (Homo sapiens) (UniProt Q96D53); test: Binding affinity to wild-type human full length ADCK4 (M1 to S544 residues) expressed in bacterial expression system assessed as residual binding level at 1 uM by Kinomescan method relative to control
# Sequence of Atypical kinase COQ8B, mitochondrial (Homo sapiens) (Q96D53 whole entry, the tested form may be a part): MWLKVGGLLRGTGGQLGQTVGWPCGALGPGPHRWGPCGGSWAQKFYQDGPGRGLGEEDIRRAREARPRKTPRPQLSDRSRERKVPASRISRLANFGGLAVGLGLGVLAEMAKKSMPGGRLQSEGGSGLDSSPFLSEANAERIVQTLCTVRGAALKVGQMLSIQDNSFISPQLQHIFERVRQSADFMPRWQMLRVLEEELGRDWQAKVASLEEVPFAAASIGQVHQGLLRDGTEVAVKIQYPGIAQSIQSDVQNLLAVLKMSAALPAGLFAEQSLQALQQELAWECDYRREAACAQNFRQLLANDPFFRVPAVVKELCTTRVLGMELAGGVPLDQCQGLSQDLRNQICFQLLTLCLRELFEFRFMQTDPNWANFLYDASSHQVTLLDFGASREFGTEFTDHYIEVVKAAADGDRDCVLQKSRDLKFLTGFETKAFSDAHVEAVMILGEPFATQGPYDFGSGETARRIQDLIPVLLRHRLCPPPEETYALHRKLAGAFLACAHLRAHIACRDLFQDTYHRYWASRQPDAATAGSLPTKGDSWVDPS
# [3] = target: Mitogen-activated protein kinase kinase kinase 5 (Homo sapiens) (UniProt Q99683); test: Binding affinity to wild-type human partial length ASK1 (E648 to S964 residues) expressed in bacterial expression system assessed as residual binding level at 1 uM by Kinomescan method relative to control
# [4] = target: Serine/threonine-protein kinase Chk1 (Homo sapiens) (UniProt O14757); test: Binding affinity to wild-type human partial length CHEK1 (M1 to G289 residues) expressed in bacterial expression system assessed as residual binding level at 1 uM by Kinomescan method relative to control
# [5] = tested on: Epidermal growth factor receptor (Homo sapiens), P00533 [L858R,T790M]; test: Binding affinity to human partial length EGFR L858R/T790M double mutant (R669 to V1011 residues) expressed in mammalian expression system assessed as residual binding level at 1 uM by Kinomescan method relative to control
# [6] = target: Ephrin type-A receptor 5 (Homo sapiens) (UniProt P54756); test: Binding affinity to wild-type human partial length EPHA5 (T627 to V930 residues) expressed in bacterial expression system assessed as residual binding level at 1 uM by Kinomescan method relative to control
# [7] = target: Focal adhesion kinase 1 (Homo sapiens) (UniProt Q05397); test: Binding affinity to wild-type human partial length FAK (D402 to R696 residues) expressed in bacterial expression system assessed as residual binding level at 1 uM by Kinomescan method relative to control
# [8] = tested on: Receptor-type tyrosine-protein kinase FLT3 (Homo sapiens), P36888 [K663Q]; test: Binding affinity to human partial length FLT3 K663Q mutant (V592 to Y969 residues) expressed in bacterial expression system assessed as residual binding level at 1 uM by Kinomescan method relative to control
# [9] = target: G protein-coupled receptor kinase 4 (Homo sapiens) (UniProt P32298); test: Binding affinity to wild-type human full length GRK4 (M1 to C578 residues) expressed in bacterial expression system assessed as residual binding level at 1 uM by Kinomescan method relative to control
# Sequence of G protein-coupled receptor kinase 4 (Homo sapiens) (P32298 whole entry, looked up, the tested form may be a part): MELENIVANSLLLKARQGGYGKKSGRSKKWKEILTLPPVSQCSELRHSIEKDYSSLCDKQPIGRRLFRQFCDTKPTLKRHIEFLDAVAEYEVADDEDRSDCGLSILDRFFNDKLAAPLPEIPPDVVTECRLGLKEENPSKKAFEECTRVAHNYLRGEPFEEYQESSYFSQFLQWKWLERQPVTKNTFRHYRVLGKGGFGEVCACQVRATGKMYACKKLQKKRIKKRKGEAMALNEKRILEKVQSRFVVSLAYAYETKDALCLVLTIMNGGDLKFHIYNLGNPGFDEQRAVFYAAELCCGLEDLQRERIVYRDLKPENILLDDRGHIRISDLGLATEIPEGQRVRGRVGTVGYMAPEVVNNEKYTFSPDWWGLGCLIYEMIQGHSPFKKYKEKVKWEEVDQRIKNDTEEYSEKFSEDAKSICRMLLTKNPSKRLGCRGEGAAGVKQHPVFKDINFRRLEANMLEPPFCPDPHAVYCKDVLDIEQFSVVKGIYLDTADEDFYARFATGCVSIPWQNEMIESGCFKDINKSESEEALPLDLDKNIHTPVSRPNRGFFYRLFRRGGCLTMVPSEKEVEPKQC
# [10] = target: Insulin-like growth factor 1 receptor (Homo sapiens) (UniProt P08069); test: Binding affinity to wild-type human partial length IGF1R (L972 to D1294 residues) expressed in bacterial expression system assessed as residual binding level at 1 uM by Kinomescan method relative to control
# [11] = target: Interleukin-1 receptor-associated kinase 4 (Homo sapiens) (UniProt Q9NWZ3); test: Binding affinity to wild-type human partial length IRAK4 (M1 to S460 residues) expressed in mammalian expression system assessed as residual binding level at 1 uM by Kinomescan method relative to control
# [12] = target: Mitogen-activated protein kinase 10 (Homo sapiens) (UniProt P53779); test: Binding affinity to wild-type human partial length JNK3 (V28 to Q422 residues) expressed in mammalian expression system assessed as residual binding level at 1 uM by Kinomescan method relative to control
# [13] = target: Serine/threonine-protein kinase LATS2 (Homo sapiens) (UniProt Q9NRM7); test: Binding affinity to wild-type human partial length LATS2 (Q641 to V1088 residues) expressed in mammalian expression system assessed as residual binding level at 1 uM by Kinomescan method relative to control
# Sequence of Serine/threonine-protein kinase LATS2 (Homo sapiens) (Q9NRM7 whole entry, the tested form may be a part): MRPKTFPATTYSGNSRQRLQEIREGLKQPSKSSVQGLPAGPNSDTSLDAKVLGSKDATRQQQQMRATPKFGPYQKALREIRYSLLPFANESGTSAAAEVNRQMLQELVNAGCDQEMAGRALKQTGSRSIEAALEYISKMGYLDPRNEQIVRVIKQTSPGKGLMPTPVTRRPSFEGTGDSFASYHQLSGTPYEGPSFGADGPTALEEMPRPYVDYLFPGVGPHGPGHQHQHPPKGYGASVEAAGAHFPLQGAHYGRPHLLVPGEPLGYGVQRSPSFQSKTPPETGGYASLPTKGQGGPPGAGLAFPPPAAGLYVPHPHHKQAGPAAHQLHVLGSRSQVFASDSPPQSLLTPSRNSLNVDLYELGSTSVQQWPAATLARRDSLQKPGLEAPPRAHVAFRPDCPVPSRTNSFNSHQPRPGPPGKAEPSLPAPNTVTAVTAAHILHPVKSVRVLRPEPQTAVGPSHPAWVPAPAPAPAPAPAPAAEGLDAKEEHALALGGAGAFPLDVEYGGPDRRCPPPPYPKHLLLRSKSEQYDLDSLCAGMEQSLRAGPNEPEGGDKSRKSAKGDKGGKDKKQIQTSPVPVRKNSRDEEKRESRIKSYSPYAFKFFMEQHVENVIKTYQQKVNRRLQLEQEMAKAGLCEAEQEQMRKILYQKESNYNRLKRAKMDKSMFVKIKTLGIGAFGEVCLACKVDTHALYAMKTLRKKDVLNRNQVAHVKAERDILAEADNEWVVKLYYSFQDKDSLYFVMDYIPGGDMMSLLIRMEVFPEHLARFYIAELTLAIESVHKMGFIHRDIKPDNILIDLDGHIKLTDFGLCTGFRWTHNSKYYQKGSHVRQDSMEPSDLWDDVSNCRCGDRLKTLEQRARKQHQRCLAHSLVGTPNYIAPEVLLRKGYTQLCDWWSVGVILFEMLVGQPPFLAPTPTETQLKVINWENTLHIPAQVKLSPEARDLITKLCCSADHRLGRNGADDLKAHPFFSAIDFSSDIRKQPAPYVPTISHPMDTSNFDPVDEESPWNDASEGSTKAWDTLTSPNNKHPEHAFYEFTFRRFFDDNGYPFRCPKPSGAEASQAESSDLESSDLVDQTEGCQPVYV
# [14] = target: Phosphatidylinositol 4-phosphate 5-kinase type-1 alpha (Homo sapiens) (UniProt Q99755); test: Binding affinity to wild-type human full length PIP5K1A (M1 to H562 residues) expressed in bacterial expression system assessed as residual binding level at 1 uM by Kinomescan method relative to control
# Sequence of Phosphatidylinositol 4-phosphate 5-kinase type-1 alpha (Homo sapiens) (Q99755 whole entry, the tested form may be a part): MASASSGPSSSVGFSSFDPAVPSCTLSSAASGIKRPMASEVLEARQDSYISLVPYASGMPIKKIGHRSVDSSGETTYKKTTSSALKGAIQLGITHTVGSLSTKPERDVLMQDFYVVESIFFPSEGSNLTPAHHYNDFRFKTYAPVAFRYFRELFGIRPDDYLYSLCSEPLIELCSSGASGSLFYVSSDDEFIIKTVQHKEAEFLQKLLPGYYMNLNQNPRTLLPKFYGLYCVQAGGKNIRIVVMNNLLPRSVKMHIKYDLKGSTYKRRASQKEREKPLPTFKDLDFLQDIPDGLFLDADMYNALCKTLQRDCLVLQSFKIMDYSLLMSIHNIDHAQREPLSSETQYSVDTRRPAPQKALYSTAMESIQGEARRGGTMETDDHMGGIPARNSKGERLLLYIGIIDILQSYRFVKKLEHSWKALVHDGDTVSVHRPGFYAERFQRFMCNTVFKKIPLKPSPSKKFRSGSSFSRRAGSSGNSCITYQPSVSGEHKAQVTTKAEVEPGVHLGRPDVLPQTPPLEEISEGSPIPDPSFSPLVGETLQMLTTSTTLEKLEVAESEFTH
# [15] = target: Serine/threonine-protein kinase PknB (Mycobacterium tuberculosis) (UniProt P9WI81); test: Binding affinity to wild-type Mycobacterium tuberculosis H37Rv partial length PKNB (M1 to G279 residues) expressed in mammalian expression system assessed as residual binding level at 1 uM by Kinomescan method relative to control
# [16] = target: Protein kinase C eta type (Homo sapiens) (UniProt P24723); test: Binding affinity to wild-type human partial length PRKCH (S324 to P683 residues) expressed in bacterial expression system assessed as residual binding level at 1 uM by Kinomescan method relative to control
# [17] = target: cGMP-dependent protein kinase 2 (Homo sapiens) (UniProt Q13237); test: Binding affinity to wild-type human partial length PRKG2 (S422 to F762 residues) expressed in mammalian expression system assessed as residual binding level at 1 uM by Kinomescan method relative to control
# [18] = target: RAF proto-oncogene serine/threonine-protein kinase (Homo sapiens) (UniProt P04049); test: Binding affinity to wild-type human partial length RAF1 (I330 to T640 residues) expressed in bacterial expression system assessed as residual binding level at 1 uM by Kinomescan method relative to control
# Sequence of RAF proto-oncogene serine/threonine-protein kinase (Homo sapiens) (P04049 whole entry, the tested form may be a part): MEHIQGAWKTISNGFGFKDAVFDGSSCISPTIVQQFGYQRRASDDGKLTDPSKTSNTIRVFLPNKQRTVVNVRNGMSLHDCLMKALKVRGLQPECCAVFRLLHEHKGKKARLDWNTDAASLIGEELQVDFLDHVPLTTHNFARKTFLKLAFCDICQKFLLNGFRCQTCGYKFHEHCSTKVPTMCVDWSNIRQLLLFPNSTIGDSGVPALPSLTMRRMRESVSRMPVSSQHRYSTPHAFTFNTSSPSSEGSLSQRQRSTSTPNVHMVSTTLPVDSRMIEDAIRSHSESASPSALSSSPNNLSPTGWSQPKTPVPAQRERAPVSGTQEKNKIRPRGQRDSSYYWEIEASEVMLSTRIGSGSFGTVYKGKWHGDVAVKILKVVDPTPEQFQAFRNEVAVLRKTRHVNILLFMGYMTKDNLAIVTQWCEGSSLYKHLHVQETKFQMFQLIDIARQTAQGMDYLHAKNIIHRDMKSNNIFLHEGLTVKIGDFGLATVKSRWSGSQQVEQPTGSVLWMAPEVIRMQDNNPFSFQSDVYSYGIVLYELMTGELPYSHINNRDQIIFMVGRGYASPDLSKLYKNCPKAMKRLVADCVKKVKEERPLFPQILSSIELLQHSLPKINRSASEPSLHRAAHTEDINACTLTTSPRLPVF
# [19] = target: Serine/threonine-protein kinase RIO2 (Homo sapiens) (UniProt Q9BVS4); test: Binding affinity to wild-type human partial length RIOK2 (M1 to D313 residues) expressed in mammalian expression system assessed as residual binding level at 1 uM by Kinomescan method relative to control
# Sequence of Serine/threonine-protein kinase RIO2 (Homo sapiens) (Q9BVS4 whole entry, looked up, the tested form may be a part): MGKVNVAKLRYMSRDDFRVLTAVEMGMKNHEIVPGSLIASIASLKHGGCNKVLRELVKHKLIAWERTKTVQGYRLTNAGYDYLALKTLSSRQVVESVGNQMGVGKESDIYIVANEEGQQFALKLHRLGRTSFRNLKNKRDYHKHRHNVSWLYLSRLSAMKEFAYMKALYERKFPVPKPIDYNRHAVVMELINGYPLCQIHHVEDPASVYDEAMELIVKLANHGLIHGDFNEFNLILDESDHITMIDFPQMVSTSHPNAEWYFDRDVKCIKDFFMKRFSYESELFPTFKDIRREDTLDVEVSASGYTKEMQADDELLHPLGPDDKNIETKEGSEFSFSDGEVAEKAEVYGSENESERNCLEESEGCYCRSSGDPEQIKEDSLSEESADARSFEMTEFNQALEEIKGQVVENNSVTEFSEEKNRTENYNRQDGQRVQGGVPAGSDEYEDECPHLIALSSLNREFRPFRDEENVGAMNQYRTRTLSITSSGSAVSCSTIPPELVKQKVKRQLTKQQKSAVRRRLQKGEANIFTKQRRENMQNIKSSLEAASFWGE
# [20] = target: Ribosomal protein S6 kinase alpha-3 (Homo sapiens) (UniProt P51812); test: Binding affinity to wild-type human partial length N-terminal RSK2 kinase domain 1 (M1 to D394 residues) expressed in mammalian expression system assessed as residual binding level at 1 uM by Kinomescan method relative to control
# Sequence of Ribosomal protein S6 kinase alpha-3 (Homo sapiens) (P51812 whole entry, the tested form may be a part): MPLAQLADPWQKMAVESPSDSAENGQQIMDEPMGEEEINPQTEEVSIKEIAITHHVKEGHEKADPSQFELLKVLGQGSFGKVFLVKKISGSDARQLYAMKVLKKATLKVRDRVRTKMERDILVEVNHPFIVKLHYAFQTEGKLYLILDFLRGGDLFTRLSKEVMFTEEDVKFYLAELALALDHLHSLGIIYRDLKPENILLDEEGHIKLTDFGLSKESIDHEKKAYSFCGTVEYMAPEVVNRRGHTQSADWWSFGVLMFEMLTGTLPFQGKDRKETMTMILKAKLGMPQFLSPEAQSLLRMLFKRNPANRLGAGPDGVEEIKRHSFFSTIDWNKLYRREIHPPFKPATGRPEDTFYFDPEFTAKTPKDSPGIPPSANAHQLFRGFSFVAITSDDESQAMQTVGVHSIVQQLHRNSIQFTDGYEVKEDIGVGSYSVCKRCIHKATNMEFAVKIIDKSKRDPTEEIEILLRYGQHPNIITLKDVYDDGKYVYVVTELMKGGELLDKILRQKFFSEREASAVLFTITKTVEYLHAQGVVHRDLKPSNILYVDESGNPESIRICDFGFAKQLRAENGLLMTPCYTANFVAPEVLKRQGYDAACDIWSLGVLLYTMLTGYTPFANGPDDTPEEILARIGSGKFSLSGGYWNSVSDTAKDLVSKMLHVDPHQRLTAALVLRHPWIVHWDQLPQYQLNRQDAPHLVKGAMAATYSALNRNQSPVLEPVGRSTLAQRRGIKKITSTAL
# [21] = target: Serine/threonine-protein kinase SBK1 (Homo sapiens) (UniProt Q52WX2); test: Binding affinity to wild-type human partial length SBK1 (P23 to P348 residues) expressed in mammalian expression system assessed as residual binding level at 1 uM by Kinomescan method relative to control
# [22] = target: Serine/threonine-protein kinase Sgk3 (Homo sapiens) (UniProt Q96BR1); test: Binding affinity to wild-type human partial length SGK3 (M119 to L496 residues) expressed in mammalian expression system assessed as residual binding level at 1 uM by Kinomescan method relative to control
# [23] = target: BDNF/NT-3 growth factors receptor (Homo sapiens) (UniProt Q16620); test: Binding affinity to wild-type human partial length TRKB (Q547 to G838 residues) expressed in mammalian expression system assessed as residual binding level at 1 uM by Kinomescan method relative to control
# [24] = target: Dual specificity protein kinase TTK (Homo sapiens) (UniProt P33981); test: Binding affinity to wild-type human partial length TTK (N505 to V798 residues) expressed in bacterial expression system assessed as residual binding level at 1 uM by Kinomescan method relative to control
compound,measurement,setting,value
CC(C)Nc1sc(C(=O)c2ccc(Cl)s2)c(N)c1C#N,Activity,[1],95%
same,Activity,[2],100%
same,Activity,[3],100%
same,Activity,[4],87%
same,Activity,[5],83%
same,Activity,[6],100%
same,Activity,[7],74%
same,Activity,[8],96%
same,Activity,[9],74%
same,Activity,[10],90%
same,Activity,[11],100%
same,Activity,[12],100%
same,Activity,[13],100%
same,Activity,[14],81%
same,Activity,[15],95%
same,Activity,[16],84%
same,Activity,[17],100%
same,Activity,[18],71%
same,Activity,[19],100%
same,Activity,[20],99%
same,Activity,[21],100%
same,Activity,[22],100%
same,Activity,[23],70%
same,Activity,[24],49%
